Test results taken from US20100261796A1, “Use of Novel Compounds for IBD Treatment” (Ferring B.V., priority 2005, published 2010).

Assays:
TNBS-induced colitis = experiment: TNBS colitis induction model; assay type: in vivo, C57Bl/6 mice
Description: Animals were housed ten per cage and had free access to standard mouse chow and tap water. For colitis induction, C57Bl/6 mice were anesthetized for 90-120 minutes and received an intra-rectal administration of TNBS (40 μL, 150 mg/kg; provided by Sigma-Aldrich, FR) dissolved in a 1:1 mixture of 0.9% NaCl with 100% ethanol. Control mice received a 1:1 mixture of 0.9% NaCl with 100% ethanol or a saline solution using the same technique. Animals were sacrificed 5 days after TNBS administration. The anti-inflammatory effects of compound 17 were tested by administering the compound once daily by subcutaneous injection, starting one day before colitis induction. Macroscopic, histology and biologic assessments of colitis were performed blindly by two investigators.
The colon of each mouse was examined under a dissecting microscope (magnification, ×5) to evaluate the macroscopic lesions according to the established so-called Wallace criteria. The Wallace score rates macroscopic lesions on a scale from 0 to 10 based on features reflecting inflammation, such as hyperemia, thickening of the bowel, and extent of ulceration (Wallace, J. L. et al. Gastroenterology 96(1):29-36 (1989)). A colon specimen located 2 cm above the anal canal was cut into three parts, one of which was fixed in 4% paraformaldehyde and embedded in paraffin. Sections stained with May-Grunwald-Giemsa were examined blindly by two investigators and scored according to the so-called Ameho criteria (Ameho, C. K. et al. Gut 41(4):487-493 (1997)). This grading on a scale from 0 to 6 takes into account the degree of inflammation infiltrate, the presence of erosion, ulceration, or necrosis, and the depth and surface extension of lesions.
Mice receiving TNBS injections had severe lesions five days after colitis induction, showing necrosis of the colon and leading to mortality in 70% of the mice. TNBS-induced colitis was characterized by hyperemia and extensive area of ulceration. These lesions were characterized by neutrophilic infiltration extending to the mucosa deep into the muscular layer. […]

DSS-induced colitis = experiment: Dextran sulfate sodium (DSS) colitis induction model; assay type: in vivo, mice; details: preventive treatment, 10^−1 mg/kg/d, 5% DSS for seven days
Description: Mice were fed 5% DSS (molecular weight 30-40 kDa) for seven days. DSS was dissolved in sterile distilled water and given ad libitum throughout the experiment. Stool consistency, occult blood or the presence of macroscopic rectal bleeding gross were determined daily and blindly by two experiment investigators, as described previously (Hartmann et al., J Pharmacol Exp Ther., 292(1):22-30 (2000)). […] Bleeding was scored 0 point for no blood in hemoccult, 2 points for positive hemoccult, and 4 points for gross bleeding from the rectum. These scores were added, resulting in a total clinical score ranging from 0 (healthy) to 8 (maximal activity of colitis). […] For cell infiltration of inflammatory cells, rare inflammatory cells in the lamina propria were counted as 0; increased numbers of inflammatory cells, including neutrophils in the lamina propria as 1; confluence of inflammatory cells, extending into the submucosa as 2; and a score of 3 was given for transmural extension of the inflammatory cell infiltrate. For epithelial damage, absence of mucosal damage was counted as 0, discrete focal lymphoepithelial lesions were counted as 1, mucosal erosion/ulceration was counted as 2, and a score of 3 was given for extensive mucosal damage and extension through deeper structures of the bowel wall. […]

NC(=O)CCCN(CCCC1CCCCC1)C(=O)Nc1ccccc1 [Compound 17, 4-[1-(3-cyclohexylpropyl)-3-phenylureido]butyramide]
Ameho score (histology, scale 0 to 6) (TNBS-induced colitis; 10^−1 mg/kg/d subcutaneously once daily, starting one day before colitis induction, five days after TNBS administration, untreated TNBS mice 5.3±0.15): 3.9±0.62 | Wallace score (macroscopic lesions, scale 0 to 10) (TNBS-induced colitis; 10^−1 mg/kg/d subcutaneously once daily, starting one day before colitis induction, five days after TNBS administration, untreated TNBS mice 7.0±0.37): 3.8±0.89 | mortality rates (TNBS-induced colitis; 10^−1 mg/kg/d subcutaneously, TNBS-induced colitis, mortality in 70% of untreated TNBS mice): not associated with a significant improvement of mortality rates | scores for clinical parameters (stool consistency + bleeding, 0 to 8) (DSS-induced colitis; untreated 3.7±0.14, P=0.003): 2.8±0.13 | histologic score (0 to 6) (DSS-induced colitis; untreated 5.8±0.13, P=0.001): 3.9±0.39
